Measured values from the NIST ThermoML archive (doi:10.1016/j.jct.2014.01.020).
Numbers after ± are expanded uncertainties.

Assay: molar heat capacity at constant pressure; xn = mol fraction of the nth substance listed
Settings: Liquid, Flow calorimetry

C1CCCCC1 [cyclohexane] + CCCCO
molar heat capacity at constant pressure [J/K/mol]
Settings | x2 = 0 | x2 = 0.1013 | x2 = 0.2003 | x2 = 0.3002 | x2 = 0.4013 | x2 = 0.4997 | x2 = 0.6002 | x2 = 0.6999 | x2 = 0.7998 | x2 = 0.8999
293.15 K, 25000 kPa | – | – | – | – | – | – | – | 165.6 ± 1.7 | 166 ± 1.7 | 166.6 ± 1.7
313.15 K, 100 kPa | – | 179.7 ± 1.8 | 182.8 ± 1.8 | 185.3 ± 1.9 | 187.8 ± 1.9 | 188.1 ± 1.9 | 189.4 ± 1.9 | 191.3 ± 1.9 | 191.4 ± 1.9 | 191.1 ± 1.9
313.15 K, 5000 kPa | – | 177.4 ± 1.8 | 180.4 ± 1.8 | 183.2 ± 1.9 | 186.1 ± 1.9 | 186.5 ± 1.9 | 187.4 ± 1.9 | 189.1 ± 1.9 | 189.9 ± 1.9 | 189.3 ± 1.9
313.15 K, 10000 kPa | – | 175.2 ± 1.8 | 178.8 ± 1.8 | 181.1 ± 1.8 | 183.7 ± 1.9 | 184.5 ± 1.9 | 185.4 ± 1.9 | 187.4 ± 1.9 | 188.9 ± 1.9 | 187.3 ± 1.9
313.15 K, 15000 kPa | – | 172.9 ± 1.7 | 175.8 ± 1.8 | 178.9 ± 1.8 | 181.6 ± 1.8 | 182.7 ± 1.8 | 183.8 ± 1.9 | 185.5 ± 1.9 | 187.2 ± 1.9 | 186.5 ± 1.9
313.15 K, 20000 kPa | – | 170.5 ± 1.7 | 173.8 ± 1.8 | 177 ± 1.8 | 180.4 ± 1.8 | 180.7 ± 1.8 | 181.4 ± 1.8 | 184.3 ± 1.9 | 185.4 ± 1.9 | 184.6 ± 1.9
313.15 K, 25000 kPa | 154.6 ± 1.6 | 168.7 ± 1.7 | 171.6 ± 1.7 | 175 ± 1.8 | 177.8 ± 1.8 | 179.3 ± 1.8 | 179.7 ± 1.8 | 182.3 ± 1.8 | 183.9 ± 1.9 | 183.1 ± 1.9
